Results on one molecule are retold here after PMC8805583, “Discovery of Herbacetin as a Novel SGK1 Inhibitor to Alleviate Myocardial Hypertrophy” (Advanced Science, 2021).

Common to all, as to test: KinaseProfiler Assay, AGC kinase panel
Assay type in all cases: biochemical

The target in test [1] is T1, catalytic subunit C-beta of PKA (PKAcβ) (Homo sapiens, UniProt P22694).
T1 construct: purchased Eurofins Discovery (KinaseProfiler Service)
Conditions: HBT 10 µmol. From the text: (§1) 20 structurally related flavonoids of HBT were collected, which differ in the number and position of —OH groups, and examined for their effects on SGK1 activity. Based on the docking prediction, the —OH group at the C‐4’ position of HBT was required for the interaction with the key SGK1 residue D177. Therefore, the 20 flavonoids were divided into two classes according to the presence or absence of an —OH group at C‐4’ (Figure 4B). At both tested concentrations, flavonoids with an —OH group at C‐4’ (class A) inhibited SGK1 more than those without an —OH group at C‐4’ (class B) (Figure 4C). The IC50 of each compound is listed in Figure 4D; and Figure S6 (Supporting Information). […] Conversely, the absence of an ‐OH group at C‐8 led to a greater than 10‐fold reduction in flavonoid SGK1 inhibitory activity, as shown by the performance of A1 or A4. […] The inhibitory activity of HBT (10 µmol) against 28 human AGC kinases was tested by KinaseProfiler Assay (Eurofins Discovery). The percentage of HBT's inhibitory activity against each kinase was normalized by the respective positive inhibitors of AGC kinases.
(§2) The initial crystal structures of SGK1 (PDB entry: 3HDN, 3HDM, and 2R5T) were obtained from the Protein Data Bank (PDB). The prepared inhibitors were then docked by Glide with the extra precision (XP) scoring mode to estimate the binding affinity for each protein–ligand complex. The detailed process of docking has been described previously.^[ [46] ^] HEK293T cells were transfected with SGK1 mutant plasmids. After 24 h, cells were lysed and immunoprecipitated with anti‐FLAG antibody and beads. Immune complexes were washed with kinase buffer and incubated in kinase buffer with substrate peptide for 1 h at 30 ℃ followed by LC/MS measurement as described above. KINOMEscan Profiling Service and KinaseProfiler Service Assay were provided by Eurofins Discovery.

The next test addresses T2, SGK3 (Homo sapiens, UniProt Q96BR1).
T2 construct: purchased Eurofins Discovery (KinaseProfiler Service)
T2 sequence (Q96BR1 1-496): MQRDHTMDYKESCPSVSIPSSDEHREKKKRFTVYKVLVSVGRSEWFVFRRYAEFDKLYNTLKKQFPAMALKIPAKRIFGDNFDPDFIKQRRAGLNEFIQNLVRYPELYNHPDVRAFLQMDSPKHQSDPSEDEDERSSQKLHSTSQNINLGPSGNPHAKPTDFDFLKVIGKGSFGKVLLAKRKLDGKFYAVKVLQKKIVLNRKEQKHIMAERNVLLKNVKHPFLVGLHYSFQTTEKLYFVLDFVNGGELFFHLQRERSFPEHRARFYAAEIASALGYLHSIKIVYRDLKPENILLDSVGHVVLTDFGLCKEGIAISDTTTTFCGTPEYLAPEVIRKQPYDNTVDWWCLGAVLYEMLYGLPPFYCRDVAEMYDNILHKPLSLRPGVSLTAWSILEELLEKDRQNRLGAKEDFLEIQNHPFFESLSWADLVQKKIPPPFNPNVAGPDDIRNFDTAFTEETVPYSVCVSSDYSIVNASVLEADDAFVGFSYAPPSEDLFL
The conditions noted are these: HBT 10 µmol; normalized by positive inhibitors.
Text: as §1, §2

Test [2] concerns the target T3, G protein-coupled receptor kinase 3 (GRK3) (Homo sapiens, UniProt P35626).
T3 construct: purchased Eurofins Discovery (KinaseProfiler Service)
T3 sequence (P35626 1-688): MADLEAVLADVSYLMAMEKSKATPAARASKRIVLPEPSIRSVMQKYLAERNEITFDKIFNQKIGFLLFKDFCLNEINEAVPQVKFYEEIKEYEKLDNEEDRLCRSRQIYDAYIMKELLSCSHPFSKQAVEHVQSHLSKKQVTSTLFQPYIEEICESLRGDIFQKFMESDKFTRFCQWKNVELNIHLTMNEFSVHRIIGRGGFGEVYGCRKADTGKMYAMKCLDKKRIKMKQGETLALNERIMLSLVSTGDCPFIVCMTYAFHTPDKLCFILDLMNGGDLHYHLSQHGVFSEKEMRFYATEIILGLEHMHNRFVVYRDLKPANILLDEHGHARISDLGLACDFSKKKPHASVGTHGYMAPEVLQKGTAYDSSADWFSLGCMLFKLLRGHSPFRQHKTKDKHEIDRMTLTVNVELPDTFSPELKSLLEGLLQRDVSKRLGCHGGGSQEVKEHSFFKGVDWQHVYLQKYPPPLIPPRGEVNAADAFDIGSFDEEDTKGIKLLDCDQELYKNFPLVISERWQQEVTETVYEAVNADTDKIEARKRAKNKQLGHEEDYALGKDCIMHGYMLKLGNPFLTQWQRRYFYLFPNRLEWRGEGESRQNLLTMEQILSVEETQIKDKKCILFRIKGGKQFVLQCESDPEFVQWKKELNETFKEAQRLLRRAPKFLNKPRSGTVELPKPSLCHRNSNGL
Conditions: HBT 10 µmol.
Text: as §1, §2

Structures are written as SMILES.

With `O=c1c(O)c(-c2ccc(O)cc2)oc2c(O)c(O)cc(O)c12` [HBT, herbacetin], the “inhibitory effect on PKAcβ” value in test [1] was “high inhibitory effects”. Also, the “inhibitory activity on SGK3” value at SGK3 is listed as 77%. In addition, in test [2], the “inhibitory effect on GRK3” value was “high inhibitory effects”.
